Experimental data published in ChEMBL document CHEMBL4665916, “Human Insulin-like Peptide 5 (INSL5). Identification of a Simplified Version of Two-Chain Analog A13” (ACS Med Chem Lett, 2020).
pEC50, pKi: −log10 of the molar value. Bridge positions count the residues as written; N and C are the ends. Peptide text beside a SMILES is read from it. I, II: the chains in the order shown.

Key:
Relaxin-3 receptor 2 [1] = target: T1, Relaxin-3 receptor 2 (Homo sapiens, UniProt Q8TDU9); assay: Agonist activity at human RXFP4 transfected in CHO-K1 cells co-transfected with pCRE-beta-galactosidase reporter plasmid assessed as inhibition of forskolin-induced cAMP accumulation measured after 6 hrs by beta-galactosidase reporter gene assay; assay type: functional, cell-based
Relaxin-3 receptor 2 [2] = target: T1, Relaxin-3 receptor 2; assay: Competitive binding affinity to human RXFP4 receptor transfected in CHO-K1 cells in presence of europium-labeled Eu(A)-R3/I5 by fluorometric analysis; assay type: cell-based

T1 sequence (Q8TDU9 whole entry): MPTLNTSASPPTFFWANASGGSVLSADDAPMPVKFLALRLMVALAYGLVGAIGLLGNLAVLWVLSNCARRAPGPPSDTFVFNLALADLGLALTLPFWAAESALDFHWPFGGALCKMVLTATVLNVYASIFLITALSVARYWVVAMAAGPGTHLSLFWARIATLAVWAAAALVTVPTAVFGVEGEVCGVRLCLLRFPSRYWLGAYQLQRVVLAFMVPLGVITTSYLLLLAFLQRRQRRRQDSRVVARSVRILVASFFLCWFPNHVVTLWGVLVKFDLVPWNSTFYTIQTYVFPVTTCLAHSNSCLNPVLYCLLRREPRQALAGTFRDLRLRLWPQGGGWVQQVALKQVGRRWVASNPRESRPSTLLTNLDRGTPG

pEC50 (Relaxin-3 receptor 2 [1])	pKi (Relaxin-3 receptor 2 [2])	SMILES
8.08		CC[C@H](C)[C@@H]1NC(=O)[C@H](Cc2ccc(O)cc2)NC(=O)[C@H]([C@@H](C)CC)NC(=O)[C@H](C(C)C)NC(=O)[C@H]([C@@H](C)O)NC(=O)[C@H](CCCNC(=N)N)NC(=O)[C@H]([C@@H](C)CC)NC(=O)[C@H](Cc2ccc(O)cc2)NC(=O)[C@H](CCC(=O)O)NC(=O)[C@H](CC(C)C)NC(=O)CNC(=O)[C@@H](N)CSSC[C@H](N)C(=O)N[C@@H]([C@@H](C)O)C(=O)N[C@@H](CC(=O)O)C(=O)NCC(=O)N[C@@H](C)C(=O)N[C@@H](CO)C(=O)N[C@@H](CCSC)C(=O)N[C@@H](CCCCN)C(=O)N[C@@H](CC(=O)O)C(=O)N[C@@H](CC(C)C)C(=O)N[C@@H](CO)C(=O)N[C@@H](C)C(=O)N[C@@H](CC(C)C)C(=O)N[C@H](C(=O)O)CSSC[C@@H](C(=O)N[C@@H](C)C(=O)N[C@@H](CO)C(=O)N[C@@H](CO)C(=O)N[C@@H](CCCNC(=N)N)C(=O)N[C@@H](Cc2c[nH]c3ccccc23)C(=O)O)NC1=O (I: H-CGLEYIRTVIYICASSRW-OH / II: H-CTDGASMKDLSALC-OH; disulfide I:1-II:1, I:13-II:14)
7.85	7.30	CC[C@H](C)[C@@H]1NC(=O)[C@H](Cc2ccc(O)cc2)NC(=O)[C@H]([C@@H](C)CC)NC(=O)[C@H](C(C)C)NC(=O)[C@H]([C@@H](C)O)NC(=O)[C@H](CCCNC(=N)N)NC(=O)[C@H]([C@@H](C)CC)NC(=O)[C@H](Cc2ccc(O)cc2)NC(=O)[C@H](CCC(=O)O)NC(=O)[C@H](CC(C)C)NC(=O)CNC(=O)[C@@H](NC(=O)[C@H](CC(C)C)NC(=O)[C@@H](N)CCCNC(=N)N)CSSC[C@H](N)C(=O)N[C@@H]([C@@H](C)O)C(=O)N[C@@H](CC(=O)O)C(=O)NCC(=O)N[C@@H](C)C(=O)N[C@@H](CO)C(=O)N[C@@H](CCSC)C(=O)N[C@@H](CCCCN)C(=O)N[C@@H](CC(=O)O)C(=O)N[C@@H](CC(C)C)C(=O)N[C@@H](CO)C(=O)N[C@@H](C)C(=O)N[C@@H](CC(C)C)C(=O)N[C@H](C(=O)O)CSSC[C@@H](C(=O)N[C@@H](C)C(=O)N[C@@H](CO)C(=O)N[C@@H](CO)C(=O)N[C@@H](CCCNC(=N)N)C(=O)N[C@@H](Cc2c[nH]c3ccccc23)C(=O)O)NC1=O (I: H-RLCGLEYIRTVIYICASSRW-OH / II: H-CTDGASMKDLSALC-OH; disulfide I:3-II:1, I:15-II:14)
7.96	7.46	CC[C@H](C)[C@@H]1NC(=O)[C@H](Cc2ccc(O)cc2)NC(=O)[C@H]([C@@H](C)CC)NC(=O)[C@H](C(C)C)NC(=O)[C@H]([C@@H](C)O)NC(=O)[C@H](CCCNC(=N)N)NC(=O)[C@H]([C@@H](C)CC)NC(=O)[C@H](Cc2ccc(O)cc2)NC(=O)[C@H](CCC(=O)O)NC(=O)[C@H](CC(C)C)NC(=O)CNC(=O)[C@@H](NC(=O)[C@H](CC(C)C)NC(=O)[C@H](CCCNC(=N)N)NC(=O)[C@@H](NC(=O)[C@@H](N)CO)C(C)C)CSSC[C@H](N)C(=O)N[C@@H]([C@@H](C)O)C(=O)N[C@@H](CC(=O)O)C(=O)NCC(=O)N[C@@H](C)C(=O)N[C@@H](CO)C(=O)N[C@@H](CCSC)C(=O)N[C@@H](CCCCN)C(=O)N[C@@H](CC(=O)O)C(=O)N[C@@H](CC(C)C)C(=O)N[C@@H](CO)C(=O)N[C@@H](C)C(=O)N[C@@H](CC(C)C)C(=O)N[C@H](C(=O)O)CSSC[C@@H](C(=O)N[C@@H](C)C(=O)N[C@@H](CO)C(=O)N[C@@H](CO)C(=O)N[C@@H](CCCNC(=N)N)C(=O)N[C@@H](Cc2c[nH]c3ccccc23)C(=O)O)NC1=O (I: H-SVRLCGLEYIRTVIYICASSRW-OH / II: H-CTDGASMKDLSALC-OH; disulfide I:5-II:1, I:17-II:14)
